Laboratory results: patent US7135466B2 (Kirin Beer Kabushiki Kaisha, priority 1999, dated 2006)
Where two headings read alike, the source gives them in different places.

Columns and labels:
PDGF-Ra = target: T1, PDGF-Ra (Homo sapiens, UniProt P16234); experiment: Inhibitory activity against PDGF-Ra phosphorylation by PDGF-AA stimulation using G292; type: cell-based; conditions: for IC50: > means inhibition at indicated concentration not more than 50%, < and << not less than 50%, read-out: PDGF (E) IC50; for inhibition at 0.1 µM: G292, at 100 nM, read-out: PDGF (E) inhibition (%) at 100 nM
T1 construct: host or cells: G-292 human osteosarcoma cells
T1 sequence (P16234 24-1089): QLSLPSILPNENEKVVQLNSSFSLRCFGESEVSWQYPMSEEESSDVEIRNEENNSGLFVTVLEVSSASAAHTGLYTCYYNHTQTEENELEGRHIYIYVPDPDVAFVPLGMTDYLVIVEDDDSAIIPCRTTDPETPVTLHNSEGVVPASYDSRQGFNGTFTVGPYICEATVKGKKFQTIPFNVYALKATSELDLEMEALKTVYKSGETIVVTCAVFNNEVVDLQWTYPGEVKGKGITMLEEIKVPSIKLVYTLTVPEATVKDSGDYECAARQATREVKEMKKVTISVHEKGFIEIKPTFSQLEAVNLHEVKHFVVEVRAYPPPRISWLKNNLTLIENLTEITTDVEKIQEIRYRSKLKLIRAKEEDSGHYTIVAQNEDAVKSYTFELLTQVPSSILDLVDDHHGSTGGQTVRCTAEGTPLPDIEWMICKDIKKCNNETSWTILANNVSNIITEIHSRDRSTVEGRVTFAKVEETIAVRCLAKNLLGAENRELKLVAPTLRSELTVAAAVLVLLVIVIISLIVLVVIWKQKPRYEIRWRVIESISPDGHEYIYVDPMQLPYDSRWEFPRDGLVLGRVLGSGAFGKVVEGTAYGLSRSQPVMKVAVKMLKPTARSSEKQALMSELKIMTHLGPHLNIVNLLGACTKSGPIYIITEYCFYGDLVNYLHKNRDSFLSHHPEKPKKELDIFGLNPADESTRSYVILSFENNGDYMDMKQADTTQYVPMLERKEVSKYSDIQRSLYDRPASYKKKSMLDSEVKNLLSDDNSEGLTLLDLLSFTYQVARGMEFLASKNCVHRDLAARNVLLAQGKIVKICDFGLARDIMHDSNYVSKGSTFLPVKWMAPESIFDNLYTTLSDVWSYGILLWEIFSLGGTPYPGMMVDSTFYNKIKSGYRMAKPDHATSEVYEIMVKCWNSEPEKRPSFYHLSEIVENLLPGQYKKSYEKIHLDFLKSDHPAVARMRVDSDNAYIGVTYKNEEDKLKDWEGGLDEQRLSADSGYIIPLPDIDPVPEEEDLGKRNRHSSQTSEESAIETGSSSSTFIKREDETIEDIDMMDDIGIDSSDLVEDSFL
In short: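 Human osteosarcoma G-292, 0.1% FBS o/n; cpd (DMSO) 1 h 37 °C; PDGF-AA 50 ng/ml 5 min; lyse 20 min RT; PY-20 capture 4 °C o/n; anti-PDGF-Ra + HRP-GAR; OD450.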

c-kit = target: T2, c-kit (Homo sapiens, UniProt P10721); experiment: Inhibitory activity against c-kit autophosphorylation (MO7e cells, h-SCF); type: cell-based; conditions: for inhibition at 1 µM: Mo7e, at 1000 nM; for IC50: MO7e cells, read-out: c-kit IC50
T2 construct: MO7e (human megakaryocytic leukemia cell line) which had been arrested for 20 hr; endogenous in cells; host or cells: MO7e human megakaryocytic leukemia cell line
T2 sequence (P10721 26-976): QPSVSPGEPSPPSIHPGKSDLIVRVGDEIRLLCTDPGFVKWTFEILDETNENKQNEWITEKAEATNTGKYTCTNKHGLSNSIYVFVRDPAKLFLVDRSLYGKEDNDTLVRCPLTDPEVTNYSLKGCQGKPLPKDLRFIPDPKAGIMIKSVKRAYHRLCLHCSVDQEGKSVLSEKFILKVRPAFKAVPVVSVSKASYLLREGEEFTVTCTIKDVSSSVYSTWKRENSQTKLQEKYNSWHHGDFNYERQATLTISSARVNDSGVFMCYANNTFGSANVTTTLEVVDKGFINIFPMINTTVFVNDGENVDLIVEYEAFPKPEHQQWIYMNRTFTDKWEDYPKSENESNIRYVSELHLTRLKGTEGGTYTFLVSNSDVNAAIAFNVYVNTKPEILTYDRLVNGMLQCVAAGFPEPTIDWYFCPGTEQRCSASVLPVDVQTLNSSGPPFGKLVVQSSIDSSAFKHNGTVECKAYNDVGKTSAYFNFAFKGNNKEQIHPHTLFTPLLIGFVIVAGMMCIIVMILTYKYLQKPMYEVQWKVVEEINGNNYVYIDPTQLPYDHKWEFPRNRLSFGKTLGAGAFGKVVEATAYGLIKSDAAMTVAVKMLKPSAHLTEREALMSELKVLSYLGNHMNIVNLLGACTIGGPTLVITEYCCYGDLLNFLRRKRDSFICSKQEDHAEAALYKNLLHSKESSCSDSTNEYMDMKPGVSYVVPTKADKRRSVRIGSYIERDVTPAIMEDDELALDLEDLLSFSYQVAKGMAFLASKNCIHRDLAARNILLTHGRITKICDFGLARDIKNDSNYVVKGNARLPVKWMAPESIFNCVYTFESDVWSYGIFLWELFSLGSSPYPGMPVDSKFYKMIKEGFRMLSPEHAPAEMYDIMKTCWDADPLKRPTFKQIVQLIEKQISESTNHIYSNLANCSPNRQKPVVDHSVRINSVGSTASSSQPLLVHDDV
In short: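 Phospho-c-kit ELISA: plate-bound PY-20 anti-phosphotyrosine captures lysate, anti-c-kit plus peroxidase-labelled secondary antibody detect, read at 450 nm. Lysates come from 20 hr-arrested MO7e cells given compound for 1 hr before a 5 min 50 ng/ml h-SCF stimulus.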

[1] = figure within parentheses in >100( )
[2] = figure within parentheses in −( ) or >1000( )

| Structure (SMILES) | IC50 (PDGF-Ra) [nM] | IC50 (PDGF-Ra; Pharmacological Test Example 1) [nM] | IC50 (c-kit; h-SCF 50 ng/ml) [nM] | further results |
| --- | --- | --- | --- | --- |
| COc1cc2nccc(Oc3ccc(NC(=O)NC4CCN(Cc5ccccc5)CC4)c(C)c3C)c2cc1OC [Example 635, N-(1-Benzyl-4-piperidyl)-N′-{4-[(6,7-dimethoxy-4-quinolyl)oxy]-2,3-dimethylphenyl}urea] | > 100 |  |  | inhibition at 0.1 µM (PDGF-Ra; [1]): 25%; inhibition at 1 µM (c-kit; [2]): 23% |
| COc1cc2nccc(Oc3ccc(NCCOc4c(OC)cccc4OC)cc3C)c2cc1OC [Example 882, N-[2-(2 6-Dimethoxyphenoxy)ethyl]-N-{4-[(6,7-dimethoxy-4-quinolyl)oxy]-3-methylphenyl}amine] | 23 |  |  | inhibition at 1 µM (c-kit; figure in parentheses in −( )): 36% |
| COc1cc2nccc(Oc3cc(C)c(NC(=S)NCCCN4CCOCC4)cc3C)c2cc1OC [Example 553, N-{4-[(6,7-Dimethoxy-4-quinolyl)oxy]-2,5-dimethylphenyl}-N′-[3-(1-morpholino)propyl]thiourea] | > 100 |  |  | inhibition at 0.1 µM (PDGF-Ra; [1]): 40%; IC50 (c-kit; 50 ng/ml h-SCF): 320 nM |
| COc1cc2nccc(Oc3ccc(NC(=S)NC(=O)c4cc(C)oc4C)c(C)c3)c2cc1OC [Example 698, N-{4-[(6,7-Dimethoxy-4-quinolyl)oxy]-2-methylphenyl}-N′-[(2,5-dimethyl-3-furyl)carbonyl]thiourea] | > 100 |  |  | inhibition at 0.1 µM (PDGF-Ra; [1]): 34%; inhibition at 1 µM (c-kit; [2]): 29% |
| CCCCN(CCCC)CCNC(=O)Nc1ccc(Oc2ncnc3cc(OC)c(OC)cc23)cc1 [Example 685, N-[2-(Dibutylamino)ethyl]-N′-{4-[(6,7-dimethoxy-4-quinazolinyl)oxy]phenyl}urea] | 22 |  |  | inhibition at 1 µM (c-kit; [2]): 41% |
| COc1ccc(OC)c(COC(=O)Nc2cc(C)c(Oc3ccnc4cc(OC)c(OC)cc34)cc2C)c1 [Example 69, 2,5-Dimethoxybenzyl N-{4-[(6,7-dimethoxy-4-quinolyl)oxy]-2,5-dimethylphenyl}carbamate] |  | 53 | 755 |  |
| CCCC(OC(=O)Nc1ccc(Oc2ccnc3cc(OC)c(OC)cc23)cc1)c1ccccc1 (stereo not drawn) [Example 184, 1-Phenylbutyl N{4-[(6,7-dimethoxy-4-quinolyl)oxy]phenyl}carbamate] |  | 38 | 369 |  |
| CCOc1ccccc1C(C)OC(=O)Nc1ccc(Oc2ncnc3cc(OC)c(OC)cc23)cc1Cl (stereo not drawn) [Example 131, 1-(2-Ethoxyphenyl)ethyl N-{-chloro-4-[(6,7-dimethoxy-4-quinazolinyl)oxy]phenyl}carbamate] |  | 38 |  | inhibition at 1 µM (c-kit; figure in parentheses in −( )): 40% |
| COc1ccc(COC(=O)Nc2ccc(Oc3ccnc4cc(OC)c(OC)cc34)cc2)cc1OC [Example 62, 3,4-Dimethoxybenzyl N-{4-[(6,7-dimethoxy-4-quinolyl)oxy]phenyl}carbamate] |  | 13 | 70 |  |
| COc1cc2nccc(Oc3ccc(NC(=O)OCCCc4ccccc4)cc3)c2cc1OC [Example 376, 3-Phenylpropyl N-{4-[(6,7-dimethoxy-4-quinolyl)oxy]phenyl}carbamate] |  | < 10 | 41 |  |
| COc1cc2nccc(Oc3ccc(NC(=S)NC(=O)C4C(C)(C)C4(C)C)cc3Cl)c2cc1OC [Example 760, N-{3-Chloro-4-[(6,7-dimethoxy-4-quinolyl)oxy]phenyl}-N′-[(2,2,3,3-tetramethylcyclopropyl)carbonyl]thiourea] | 83 |  |  | inhibition at 1 µM (c-kit; [2]): 48% |
| CCCCCC(C)OC(=O)Nc1ccc(Oc2ccnc3cc(OC)c(OC)cc23)cc1 (stereo not drawn) [Example 411, 1-Methylhexyl N-{4-[(6,7-dimethoxy-4-quinolyl)oxy]phenyl}carbamate] | 17 |  |  | IC50 (c-kit; 50 ng/ml h-SCF): 43 nM |
| COc1cc2ncnc(Oc3ccc(NC(=O)N4CCN(Cc5ccccc5)CC4)cc3)c2cc1OC [Example 690, N1-{4-[(6,7-Dimethoxy-4-quinazolinyl)oxy]phenyl}-4-benzyl-1-piperazinecarboxamide] | > 100 |  |  | inhibition at 0.1 µM (PDGF-Ra; [1]): 10%; inhibition at 1 µM (c-kit; [2]): 11% |
| COc1cc2nccc(Oc3ccc(NC(=S)NC(=O)Cc4cccs4)c(C)c3)c2cc1OC [Example 700, N-{4-[(6,7-Dimethoxy-4-quinolyl)oxy]-2-methylphenyl}-N′-[2-(2-thienyl)acetyl]thiourea] | > 100 |  |  | inhibition at 0.1 µM (PDGF-Ra; [1]): 30%; inhibition at 1 µM (c-kit; [2]): 0% |
| COc1cc2nccc(Oc3ccc(NC(=O)OCCc4ccccc4)cc3)c2cc1OC [Example 297, Phenethyl N-{4-[(6,7-dimethoxy-4-quinolyl)oxy]phenyl}carbamate] |  | < 10 | 41 |  |
| CCN(CC)CCOC(=O)Nc1ccc(Oc2ncnc3cc(OC)c(OC)cc23)cc1 [Example 436, 2-(Diethylamino)ethyl N-{4-[(6,7-dimethoxy-4-quinazolinyl)oxy]phenyl}carbamate] | > 100 |  |  | inhibition at 0.1 µM (PDGF-Ra; [1]): 46%; IC50 (c-kit; 50 ng/ml h-SCF): 878 nM |

| Structure (SMILES) | IC50 (PDGF-Ra) [nM] | IC50 (PDGF-Ra; Pharmacological Test Example 1) [nM] | IC50 (c-kit; h-SCF 50 ng/ml) [nM] | further results |
| --- | --- | --- | --- | --- |
| COc1cc2ncnc(Oc3ccc(NC(=O)OCCCOc4cccc(Cl)c4)c(C)c3C)c2cc1OC [Example 212, 3-(3-Chlorophenoxy)propyl N-{4-[(6,7-dimethoxy-4-quinazolinyl)oxy]-2,3-dimethylphenyl}carbamate] |  | 28 | 70 |  |
| COc1cc2nccc(Oc3cc(C)c(NC(=O)OCCCc4ccccc4)cc3C)c2cc1OC [Example 377, 3-Phenylpropyl N-{4-[(6,7-dimethoxy-4-quinolyl)oxy]-2,5-dimethylphenyl}carbamate] |  | 21 | 151 |  |
| COc1cc2nccc(Oc3ccc(NC(=S)NC(=O)c4cc(Cl)cc(Cl)c4)c(F)c3)c2cc1OC [Example 1122, N-(3,5-Dichlorobenzoyl)-N′-{4-[(6,7-dimethoxy-4-quinolyl)oxy]-2-fluorophenyl}thiourea] | > 100 |  |  | inhibition at 0.1 µM (PDGF-Ra; figure in parentheses in >100( )): 48%; inhibition at 1 µM (c-kit; figure in parentheses in −( )): 26% |
| COc1cc2ncnc(Oc3ccc(NC(=O)OCCCOc4ccccc4Cl)c(C)c3C)c2cc1OC [Example 211, 3-(2-Chlorophenoxy)propyl N-{4-[(6,7-dimethoxy-4-quinazolinyl)oxy]-2,3-dimethylphenyl}-carbamate] |  | 17 | 43 |  |
| COc1cc2nccc(Oc3ccc(NC(=S)NC(=O)c4ccccc4Cl)c(Cl)c3)c2cc1OC [Example 1104, N-(2-Chlorobenzoyl)-N′-{2-chloro-4-[(6,7-dimethoxy-4-quinolyl)oxy]phenyl}thiourea] | 77 |  |  | inhibition at 1 µM (c-kit; figure in parentheses in −( )): 23% |
| COc1cc2ncnc(Oc3ccc(NC(=O)OC(C)c4cccc(C(F)(F)F)c4)c(Cl)c3)c2cc1OC (stereo not drawn) [Example 91, 1-[3-(Trifluoromethyl)phenyl]ethyl N-{2-chloro-4-[(6,7-dimethoxy-4-quinazolinyl)oxy]phenyl}carbamate] |  | 14 |  | inhibition at 1 µM (c-kit; figure in parentheses in −( )): 20% |
| COc1cc2nccc(Oc3ccc(NC(=S)NC(=O)c4ccc(C)cc4C)cc3)c2cc1OC [Example 1003, N-{4-[(6,7-Dimethoxy-4-quinolyl)oxy]phenyl}-N′-(2,4-dimethylbenzoyl)thiourea] | 24 |  |  | IC50 (c-kit; h-SCF stimulation): 628 nM |
| CCN(CC)CCCOC(=O)Nc1ccc(Oc2ncnc3cc(OC)c(OC)cc23)cc1 [Example 429, 3-(Diethylamino)propyl N-{4-[(6,7-dimethoxy-4-quinazolinyl)oxy]phenyl}carbamate] | 54 |  |  | IC50 (c-kit; 50 ng/ml h-SCF): 603 nM |
| COc1cc2nccc(Oc3ccc(NC(=S)NC(=O)Cc4cccc5ccccc45)cc3Cl)c2cc1OC [Example 708, N-{3-Chloro-4-[(6,7-dimethoxy-4-quinolyl)oxy]phenyl}-N′-[2-(1-naphthyl)acetyl]thiourea] | 51 |  |  | IC50 (c-kit; 50 ng/ml h-SCF): 348 nM |
| COc1cc2nccc(Oc3ccc(NC(=S)NCCN(C(C)C)C(C)C)c(C)c3C)c2cc1OC [Example 550, N-{4-[(6,7-Dimethoxy-4-quinolyl)oxy]-2,3-dimethylphenyl}-N′-(2-diisopropylaminoethyl)thiourea] | 77 |  |  | IC50 (c-kit; 50 ng/ml h-SCF): 536 nM |
| CCN(CCNC(=O)Nc1ccc(Oc2ncnc3cc(OC)c(OC)cc23)cc1)c1cccc(C)c1 [Example 664, N-{4-[(6,7-Dimethoxy-4-quinazolinyl)oxy]phenyl}-N′-[2-(ethyl-3-methylanilino)ethyl]urea] | < 10 |  |  | IC50 (c-kit; 50 ng/ml h-SCF): 97 nM |
| COc1cc2nccc(Oc3ccc(NC(=O)OC4CCCCCC4)c(C)c3C)c2cc1OC [Example 288, Cycloheptyl N-{4-[(6,7-dimethoxy-4-quinolyl)oxy]-2,3-dimethylphenyl}carbamate] |  | < 10 | 162 |  |
| COc1cc2nccc(Oc3ccc(NC(=O)OCC4CCCCCC4)cc3)c2cc1OC [Example 348, Cycloheptylmethyl N-{4-[(6,7-dimethoxy-4-quinolyl)oxy]phenyl}carbamate] |  | < 10 | 90 |  |
| CCN(CC)CCNC(=O)Nc1ccc(Oc2ccnc3cc(OC)c(OC)cc23)c(C)c1C [Example 624, N-[2-(Diethylamino)ethyl]-N′-{4-[(6,7-dimethoxy-4-quinolyl)oxy]-2,3-dimethylphenyl}urea] | 34 |  |  | IC50 (c-kit; 50 ng/ml h-SCF): 436 nM |
| COc1cc2nccc(Oc3ccc(NC(=O)OCCCSc4ccc(Cl)cc4C)c(C)c3C)c2cc1OC [Example 78, 3-[(4-Chloro-2-methylphenyl)sulfanyl]propyl N-{4-[(6,7-dimethoxy-4-quinolyl)oxy]-2,3-dimethylphenyl}carbamate] |  | 16 | 129 |  |
